# Reference: the kinase profiling compilation of Christmann-Franck et al. (2016)
# What was measured:
# Assay in all cases: Caliper, Mobility shift assay off-chip
# [1] = system: ABL1 (human), P00519 [T315I]
# ABL2 (human) = ABL2 (human) (UniProt P42684)
# AKT2 (human) = AKT2 (human) (UniProt P31751)
# BMX (human) = BMX (human) (UniProt P51813)
# CAMK2D (human) = CAMK2D (human) (UniProt Q13557)
# [2] = system: CHEK2 (human), O96017 [R145W]
# EEF2K (human) = EEF2K (human) (UniProt O00418)
# [3] = system: EGFR (human), P00533 [T790M/L858R]
# EPHB2 (human) = EPHB2 (human) (UniProt P29323)
# EPHB4 (human) = EPHB4 (human) (UniProt P54760)
# FGR (human) = FGR (human) (UniProt P09769)
# FGR (human), sequence (P09769 whole entry, looked up): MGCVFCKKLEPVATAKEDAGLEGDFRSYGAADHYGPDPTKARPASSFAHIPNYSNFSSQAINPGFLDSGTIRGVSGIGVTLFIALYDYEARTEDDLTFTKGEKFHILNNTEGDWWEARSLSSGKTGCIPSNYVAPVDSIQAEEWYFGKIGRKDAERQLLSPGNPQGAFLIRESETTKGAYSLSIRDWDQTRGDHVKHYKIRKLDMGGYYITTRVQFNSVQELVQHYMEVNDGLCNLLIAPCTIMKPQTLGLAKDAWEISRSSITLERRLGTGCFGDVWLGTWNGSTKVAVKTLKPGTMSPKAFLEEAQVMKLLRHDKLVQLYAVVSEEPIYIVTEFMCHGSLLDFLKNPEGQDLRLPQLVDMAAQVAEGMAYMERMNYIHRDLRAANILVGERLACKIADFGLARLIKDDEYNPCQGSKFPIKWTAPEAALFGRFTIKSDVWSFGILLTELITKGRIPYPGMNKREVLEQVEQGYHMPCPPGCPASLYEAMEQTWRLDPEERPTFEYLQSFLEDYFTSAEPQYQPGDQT
# FRK (human) = FRK (human) (UniProt P42685)
# GRK5 (human) = GRK5 (human) (UniProt P34947)
# GRK6 (human) = GRK6 (human) (UniProt P43250)
# HIPK1 (human) = HIPK1 (human) (UniProt Q86Z02)
# INSR (human) = INSR (human) (UniProt P06213)
# INSR (human), sequence (P06213 whole entry, looked up): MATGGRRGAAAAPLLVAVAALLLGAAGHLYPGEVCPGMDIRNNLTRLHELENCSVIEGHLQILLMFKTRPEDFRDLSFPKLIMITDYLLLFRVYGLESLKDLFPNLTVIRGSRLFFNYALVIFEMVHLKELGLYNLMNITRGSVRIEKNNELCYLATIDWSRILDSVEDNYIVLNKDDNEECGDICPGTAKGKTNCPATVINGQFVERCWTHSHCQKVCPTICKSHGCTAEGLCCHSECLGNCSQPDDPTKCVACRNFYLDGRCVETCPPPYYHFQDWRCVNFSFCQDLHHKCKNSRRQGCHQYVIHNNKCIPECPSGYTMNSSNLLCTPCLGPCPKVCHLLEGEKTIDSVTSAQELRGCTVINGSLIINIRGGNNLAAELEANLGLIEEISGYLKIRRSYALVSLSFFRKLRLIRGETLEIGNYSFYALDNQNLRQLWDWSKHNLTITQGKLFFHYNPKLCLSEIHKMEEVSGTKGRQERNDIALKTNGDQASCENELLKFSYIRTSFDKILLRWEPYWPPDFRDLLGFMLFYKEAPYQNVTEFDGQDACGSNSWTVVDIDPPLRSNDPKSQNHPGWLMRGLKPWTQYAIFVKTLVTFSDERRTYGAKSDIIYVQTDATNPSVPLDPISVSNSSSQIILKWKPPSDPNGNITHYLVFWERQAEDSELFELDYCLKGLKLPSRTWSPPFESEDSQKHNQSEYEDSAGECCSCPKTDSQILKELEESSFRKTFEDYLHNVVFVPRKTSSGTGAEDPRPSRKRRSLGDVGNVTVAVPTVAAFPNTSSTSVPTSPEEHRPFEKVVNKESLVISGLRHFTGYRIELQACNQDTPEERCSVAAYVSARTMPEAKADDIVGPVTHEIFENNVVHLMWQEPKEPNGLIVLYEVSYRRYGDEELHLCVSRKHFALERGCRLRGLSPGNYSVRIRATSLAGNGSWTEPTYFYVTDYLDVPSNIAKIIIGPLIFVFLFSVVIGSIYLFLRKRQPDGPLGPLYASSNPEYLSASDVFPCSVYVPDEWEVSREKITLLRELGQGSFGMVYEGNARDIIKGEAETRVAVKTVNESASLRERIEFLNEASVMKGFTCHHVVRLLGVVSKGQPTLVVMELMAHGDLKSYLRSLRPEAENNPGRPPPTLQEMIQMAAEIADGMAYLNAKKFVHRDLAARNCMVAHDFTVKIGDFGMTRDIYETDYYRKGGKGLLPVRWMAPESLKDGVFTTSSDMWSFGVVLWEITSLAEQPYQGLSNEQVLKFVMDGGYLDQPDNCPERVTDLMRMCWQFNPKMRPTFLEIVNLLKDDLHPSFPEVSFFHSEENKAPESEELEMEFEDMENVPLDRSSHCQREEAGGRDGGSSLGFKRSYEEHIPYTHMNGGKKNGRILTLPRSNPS
# INSRR (human) = INSRR (human) (UniProt P14616)
# IRAK4 (human) = IRAK4 (human) (UniProt Q9NWZ3)
# IRAK4 (human), sequence (Q9NWZ3 whole entry, looked up): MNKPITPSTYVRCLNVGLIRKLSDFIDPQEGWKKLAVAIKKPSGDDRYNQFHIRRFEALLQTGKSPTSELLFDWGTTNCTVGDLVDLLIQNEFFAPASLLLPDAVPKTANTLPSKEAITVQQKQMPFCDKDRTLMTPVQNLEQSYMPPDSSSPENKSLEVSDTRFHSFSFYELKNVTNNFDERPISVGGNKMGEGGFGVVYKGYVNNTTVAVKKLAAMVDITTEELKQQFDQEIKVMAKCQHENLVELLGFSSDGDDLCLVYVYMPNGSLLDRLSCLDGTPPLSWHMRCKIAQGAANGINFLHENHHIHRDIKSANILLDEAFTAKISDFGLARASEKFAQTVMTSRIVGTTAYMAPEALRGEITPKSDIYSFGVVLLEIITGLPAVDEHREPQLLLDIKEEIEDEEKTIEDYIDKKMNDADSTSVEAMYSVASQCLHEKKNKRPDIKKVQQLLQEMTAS
# JAK2 JH1 JH2 (human) = JAK2 JH1 JH2 (human) (UniProt O60674)
# [4] = system: KIT (human), P10721 [D816H]
# NEK11 (human) = NEK11 (human) (UniProt Q8NG66)
# NLK (human) = NLK (human) (UniProt Q9UBE8)
# NTRK2 (human) = NTRK2 (human) (UniProt Q16620)
# PDGFRB (human) = PDGFRB (human) (UniProt P09619)
# PIM1 (human) = PIM1 (human) (UniProt P11309)
# PKN2 (human) = PKN2 (human) (UniProt Q16513)
# PLK2 (human) = PLK2 (human) (UniProt Q9NYY3)
# PRKACA (human) = PRKACA (human) (UniProt P17612)
# PRKCB1 (human) = PRKCB1 (human) (UniProt P05771)
# PRKCD (human) = PRKCD (human) (UniProt Q05655)
# PRKCH (human) = PRKCH (human) (UniProt P24723)
# PRKCZ (human) = PRKCZ (human) (UniProt Q05513)
# ROCK1 (human) = ROCK1 (human) (UniProt Q13464)
# ROCK1 (human), sequence (Q13464 whole entry, looked up): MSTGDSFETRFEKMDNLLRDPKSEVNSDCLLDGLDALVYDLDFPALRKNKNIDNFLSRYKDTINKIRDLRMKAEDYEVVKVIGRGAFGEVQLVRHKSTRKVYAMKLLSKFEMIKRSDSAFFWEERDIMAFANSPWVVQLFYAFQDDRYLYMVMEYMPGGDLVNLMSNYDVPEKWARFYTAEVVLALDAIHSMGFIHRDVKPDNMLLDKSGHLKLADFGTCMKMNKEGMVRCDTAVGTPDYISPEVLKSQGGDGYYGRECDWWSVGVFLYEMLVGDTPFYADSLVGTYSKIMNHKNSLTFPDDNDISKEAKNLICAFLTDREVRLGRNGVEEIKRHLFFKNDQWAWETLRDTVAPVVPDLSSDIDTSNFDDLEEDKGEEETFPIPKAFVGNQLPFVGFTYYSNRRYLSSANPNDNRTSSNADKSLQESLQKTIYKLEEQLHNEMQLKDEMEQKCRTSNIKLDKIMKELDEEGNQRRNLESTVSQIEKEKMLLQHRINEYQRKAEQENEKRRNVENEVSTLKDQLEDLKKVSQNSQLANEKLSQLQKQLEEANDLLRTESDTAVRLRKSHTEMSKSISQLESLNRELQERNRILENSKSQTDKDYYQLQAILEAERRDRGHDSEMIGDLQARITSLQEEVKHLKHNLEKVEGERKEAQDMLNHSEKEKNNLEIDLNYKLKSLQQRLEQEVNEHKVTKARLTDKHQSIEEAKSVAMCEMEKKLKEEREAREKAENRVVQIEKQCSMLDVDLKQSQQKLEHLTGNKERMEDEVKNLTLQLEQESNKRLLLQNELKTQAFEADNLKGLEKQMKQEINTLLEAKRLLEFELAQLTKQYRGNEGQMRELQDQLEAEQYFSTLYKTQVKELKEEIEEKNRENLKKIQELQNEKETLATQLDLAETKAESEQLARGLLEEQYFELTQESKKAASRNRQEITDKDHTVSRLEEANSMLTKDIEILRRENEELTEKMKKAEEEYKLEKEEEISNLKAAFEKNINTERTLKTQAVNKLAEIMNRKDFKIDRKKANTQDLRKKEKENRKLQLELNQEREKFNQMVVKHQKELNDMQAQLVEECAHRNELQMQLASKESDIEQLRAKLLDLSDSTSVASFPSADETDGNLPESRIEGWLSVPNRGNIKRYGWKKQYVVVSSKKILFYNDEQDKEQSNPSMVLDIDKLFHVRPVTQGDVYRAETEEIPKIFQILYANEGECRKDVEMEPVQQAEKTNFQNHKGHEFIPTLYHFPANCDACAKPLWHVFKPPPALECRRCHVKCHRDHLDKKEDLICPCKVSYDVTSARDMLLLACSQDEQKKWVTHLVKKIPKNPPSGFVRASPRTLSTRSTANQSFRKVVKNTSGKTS
# ROS1 (human) = ROS1 (human) (UniProt P08922)
# RPS6KA3 KD1 KD2 (human) = RPS6KA3 KD1 KD2 (human) (UniProt P51812)
# RPS6KA6 KD1 KD2 (human) = RPS6KA6 KD1 KD2 (human) (UniProt Q9UK32)
# SIK1 (human) = SIK1 (human) (UniProt P57059)
# STK17A (human) = STK17A (human) (UniProt Q9UEE5)
# STK3 (human) = STK3 (human) (UniProt Q13188)
# TBK1 (human) = TBK1 (human) (UniProt Q9UHD2)
# TSSK2 (human) = TSSK2 (human) (UniProt Q96PF2)
# AKT2 (human), sequence (P31751 whole entry, looked up): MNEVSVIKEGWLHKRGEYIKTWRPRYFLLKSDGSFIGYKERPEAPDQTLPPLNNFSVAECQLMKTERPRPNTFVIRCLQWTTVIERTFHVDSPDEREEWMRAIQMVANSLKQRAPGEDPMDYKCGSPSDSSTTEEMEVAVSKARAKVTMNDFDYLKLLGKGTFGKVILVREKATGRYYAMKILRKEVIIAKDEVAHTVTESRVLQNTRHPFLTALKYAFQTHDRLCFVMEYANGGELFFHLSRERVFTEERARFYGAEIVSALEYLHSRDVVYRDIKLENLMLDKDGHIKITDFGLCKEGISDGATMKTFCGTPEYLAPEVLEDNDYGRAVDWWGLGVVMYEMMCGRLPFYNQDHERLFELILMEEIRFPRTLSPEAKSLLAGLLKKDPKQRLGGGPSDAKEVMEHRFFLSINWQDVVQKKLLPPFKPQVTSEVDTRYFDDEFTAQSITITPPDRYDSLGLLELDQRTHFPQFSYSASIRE
# BMX (human), sequence (P51813 whole entry, looked up): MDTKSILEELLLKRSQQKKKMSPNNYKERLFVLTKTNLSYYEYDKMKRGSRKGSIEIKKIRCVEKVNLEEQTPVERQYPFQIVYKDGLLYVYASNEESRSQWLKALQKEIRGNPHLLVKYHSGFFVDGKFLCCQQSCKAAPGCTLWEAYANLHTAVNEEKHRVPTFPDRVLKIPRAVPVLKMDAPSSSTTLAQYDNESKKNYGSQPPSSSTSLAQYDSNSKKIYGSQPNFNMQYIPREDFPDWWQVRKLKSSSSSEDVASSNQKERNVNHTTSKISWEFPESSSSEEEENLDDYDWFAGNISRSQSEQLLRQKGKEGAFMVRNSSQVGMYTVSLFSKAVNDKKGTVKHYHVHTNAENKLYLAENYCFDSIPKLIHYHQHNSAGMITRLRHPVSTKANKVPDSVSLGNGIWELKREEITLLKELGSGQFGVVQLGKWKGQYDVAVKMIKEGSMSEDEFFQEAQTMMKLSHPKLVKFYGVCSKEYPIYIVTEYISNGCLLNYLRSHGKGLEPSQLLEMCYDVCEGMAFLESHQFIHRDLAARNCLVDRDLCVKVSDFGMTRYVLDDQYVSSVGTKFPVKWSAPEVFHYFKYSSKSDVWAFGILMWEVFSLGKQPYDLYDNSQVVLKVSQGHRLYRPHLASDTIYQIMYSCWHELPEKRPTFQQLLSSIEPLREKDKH
smiles,measurement,setting,value
O=C(N[C@@H](COc1ccc2[nH]c(=O)[nH]c2c1)c1ccccc1)c1cccn(Cc2ccc(F)c(F)c2)c1=O,residual activity,[1]; compound 10.0 µM,91%
same,residual activity,ABL2 (human); compound 10.0 µM,112%
same,residual activity,AKT2 (human); compound 10.0 µM,103%
same,residual activity,BMX (human); compound 10.0 µM,139%
same,residual activity,CAMK2D (human); compound 10.0 µM,92%
same,residual activity,[2]; compound 10.0 µM,96%
same,residual activity,EEF2K (human); compound 10.0 µM,98%
same,residual activity,[3]; compound 10.0 µM,99%
same,residual activity,EPHB2 (human); compound 10.0 µM,90%
same,residual activity,EPHB4 (human); compound 10.0 µM,102%
same,residual activity,FGR (human); compound 10.0 µM,100%
same,residual activity,FRK (human); compound 10.0 µM,96%
same,residual activity,GRK5 (human); compound 10.0 µM,69%
same,residual activity,GRK6 (human); compound 10.0 µM,108%
same,residual activity,HIPK1 (human); compound 10.0 µM,99%
same,residual activity,INSR (human); compound 10.0 µM,98%
same,residual activity,INSRR (human); compound 10.0 µM,108%
same,residual activity,IRAK4 (human); compound 10.0 µM,108%
same,residual activity,JAK2 JH1 JH2 (human); compound 10.0 µM,106%
same,residual activity,[4]; compound 10.0 µM,97%
same,residual activity,NEK11 (human); compound 10.0 µM,126%
same,residual activity,NLK (human); compound 10.0 µM,100%
same,residual activity,NTRK2 (human); compound 10.0 µM,95%
same,residual activity,PDGFRB (human); compound 10.0 µM,113%
same,residual activity,PIM1 (human); compound 10.0 µM,104%
same,residual activity,PKN2 (human); compound 10.0 µM,96%
same,residual activity,PLK2 (human); compound 10.0 µM,97%
same,residual activity,PRKACA (human); compound 10.0 µM,117%
same,residual activity,PRKCB1 (human); compound 10.0 µM,95%
same,residual activity,PRKCD (human); compound 10.0 µM,105%
same,residual activity,PRKCH (human); compound 10.0 µM,96%
same,residual activity,PRKCZ (human); compound 10.0 µM,106%
same,residual activity,ROCK1 (human); compound 10.0 µM,97%
same,residual activity,ROS1 (human); compound 10.0 µM,111%
same,residual activity,RPS6KA3 KD1 KD2 (human); compound 10.0 µM,124%
same,residual activity,RPS6KA6 KD1 KD2 (human); compound 10.0 µM,113%
same,residual activity,SIK1 (human); compound 10.0 µM,102%
same,residual activity,STK17A (human); compound 10.0 µM,116%
same,residual activity,STK3 (human); compound 10.0 µM,101%
same,residual activity,TBK1 (human); compound 10.0 µM,93%
same,residual activity,TSSK2 (human); compound 10.0 µM,115%
C[C@@H](Nc1nc2c(C#CC3CC3)c[nH]c(=O)c2c2cc(-c3cn[nH]c3)ccc12)C(C)(C)C,residual activity,[1]; compound 1.0 µM,88%
same,residual activity,ABL2 (human); compound 1.0 µM,104%
same,residual activity,AKT2 (human); compound 1.0 µM,90%
same,residual activity,BMX (human); compound 1.0 µM,89%
same,residual activity,CAMK2D (human); compound 1.0 µM,25%
same,residual activity,[2]; compound 1.0 µM,12%
same,residual activity,EEF2K (human); compound 1.0 µM,115%
same,residual activity,[3]; compound 1.0 µM,12%
same,residual activity,EPHB2 (human); compound 1.0 µM,92%
same,residual activity,EPHB4 (human); compound 1.0 µM,137%
same,residual activity,FGR (human); compound 1.0 µM,57%
same,residual activity,FRK (human); compound 1.0 µM,92%
same,residual activity,GRK5 (human); compound 1.0 µM,122%
same,residual activity,GRK6 (human); compound 1.0 µM,101%
same,residual activity,HIPK1 (human); compound 1.0 µM,109%
same,residual activity,INSR (human); compound 1.0 µM,107%
same,residual activity,INSRR (human); compound 1.0 µM,104%
same,residual activity,IRAK4 (human); compound 1.0 µM,122%
same,residual activity,JAK2 JH1 JH2 (human); compound 1.0 µM,106%
same,residual activity,[4]; compound 1.0 µM,9%
same,residual activity,NEK11 (human); compound 1.0 µM,116%
same,residual activity,NLK (human); compound 1.0 µM,85%
same,residual activity,NTRK2 (human); compound 1.0 µM,59%
same,residual activity,PDGFRB (human); compound 1.0 µM,102%
same,residual activity,PIM1 (human); compound 1.0 µM,107%
same,residual activity,PKN2 (human); compound 1.0 µM,10%
same,residual activity,PLK2 (human); compound 1.0 µM,72%
same,residual activity,PRKACA (human); compound 1.0 µM,106%
same,residual activity,PRKCB1 (human); compound 1.0 µM,94%
same,residual activity,PRKCD (human); compound 1.0 µM,79%
same,residual activity,PRKCH (human); compound 1.0 µM,109%
same,residual activity,PRKCZ (human); compound 1.0 µM,108%
same,residual activity,ROCK1 (human); compound 1.0 µM,102%
same,residual activity,ROS1 (human); compound 1.0 µM,98%
same,residual activity,RPS6KA3 KD1 KD2 (human); compound 1.0 µM,5%
same,residual activity,RPS6KA6 KD1 KD2 (human); compound 1.0 µM,12%
same,residual activity,SIK1 (human); compound 1.0 µM,23%
same,residual activity,STK17A (human); compound 1.0 µM,62%
same,residual activity,STK3 (human); compound 1.0 µM,60%
same,residual activity,TBK1 (human); compound 1.0 µM,78%
same,residual activity,TSSK2 (human); compound 1.0 µM,106%
CC(C)(C)c1nc2c3ccc(F)cc3c3c(=O)[nH]ccc3c2[nH]1,residual activity,PIM1 (human); compound 10.0 µM,49%
same,residual activity,ROCK1 (human); compound 10.0 µM,26%
Cc1n[nH]c2c1c(=O)n(CCCN)c1ccc(Cl)cc21,residual activity,[1]; compound 1.0 µM,86%
same,residual activity,ABL2 (human); compound 1.0 µM,111%
same,residual activity,AKT2 (human); compound 1.0 µM,94%
same,residual activity,BMX (human); compound 1.0 µM,94%
same,residual activity,EPHB2 (human); compound 1.0 µM,239%
same,residual activity,EPHB4 (human); compound 1.0 µM,84%
same,residual activity,FGR (human); compound 1.0 µM,71%
same,residual activity,INSR (human); compound 1.0 µM,103%
same,residual activity,INSRR (human); compound 1.0 µM,103%
same,residual activity,IRAK4 (human); compound 1.0 µM,85%
same,residual activity,JAK2 JH1 JH2 (human); compound 1.0 µM,100%
same,residual activity,NTRK2 (human); compound 1.0 µM,50%
same,residual activity,PDGFRB (human); compound 1.0 µM,108%
same,residual activity,PIM1 (human); compound 1.0 µM,97%
same,residual activity,PKN2 (human); compound 1.0 µM,78%
same,residual activity,PLK2 (human); compound 1.0 µM,102%
same,residual activity,PRKACA (human); compound 1.0 µM,74%
same,residual activity,PRKCD (human); compound 1.0 µM,78%
same,residual activity,PRKCH (human); compound 1.0 µM,95%
same,residual activity,PRKCZ (human); compound 1.0 µM,97%
same,residual activity,ROCK1 (human); compound 1.0 µM,66%
same,residual activity,ROS1 (human); compound 1.0 µM,95%
same,residual activity,RPS6KA3 KD1 KD2 (human); compound 1.0 µM,2%
same,residual activity,SIK1 (human); compound 1.0 µM,18%
same,residual activity,STK17A (human); compound 1.0 µM,23%
same,residual activity,STK3 (human); compound 1.0 µM,69%
same,residual activity,TBK1 (human); compound 1.0 µM,59%
same,residual activity,TSSK2 (human); compound 1.0 µM,56%
